How the values were obtained:
[1] = system: 3T3-L1 cells; experiment: CCK-8 assay (cytotoxicity); assay type: cell-based; conditions: 4 μM, 24 hours, Cell Counting Kit-8
Protocol: Before testing the utility of thio-caged fluorophores for investigating biological systems, the cytotoxicity of SNile Red in adipocytes was evaluated using Cell Counting Kit-8. At a concentration of 4 μM SNile Red, 90% of 3T3-L1 cells remained viable even after 24 hours (FIG. 10). Thio-caged dyes were then used to obtain subcellular structural data via fluorescence imaging of adipocytes. Nile Red and BODIPY are the fluorescent dyes most commonly used for lipid imaging (Corsaro and Pistara, 1998, Spiller et al., 1998, Tang et al., 2013). Confocal laser scanning microscopy (CLSM) was used to determine the specificity of SNile Red localization in adipocytes differentiated from 3T3-L1 cells. For colocalization studies, adipocytes were stained with 2 μM SNile Red and 100 nM BODIPY 493/503 for 10 mins.
3T3-L1 cells were seeded in flat-bottomed 96-well plates, 1×10^4 cells per well, with 200 μL complete culture media for 24 h. […] After 2 hours, the absorbance at 450 nm was read by 96-well plates reader. The viability of […] cells was calculated by the following equation: CV=(As−Ab)/(Ac−Ab)×100%
CV stands for the viability of cells, As, Ac and Ab stand for the absorbance of cells containing SNile Red cell control (0 μM SNile Red) and blank control (wells containing neither cells nor SNile Red).

[2] = Singlet oxygen quantum yield determination with DPBF; assay type: physicochemical; conditions: DCM, irradiation 615/30 nm, relative to methylene blue
Description: To determine whether a minimal one atom sulfur-for-oxygen substitution within fluorophores can lead to fluorescence quenching, thio-caged Nile Red (SNile Red, FIG. 1) was synthesized, in which a carbonyl group was replaced with a thiocarbonyl moiety. Treatment of Nile Red with Lawesson's reagent in refluxing benzene produced the desired SNile Red in a yield of 40%. […] Irradiation of SNile Red with red light (615 nm, 0.4 μW cm-2) led to the regeneration of fluorescent Nile Red in a high yield (FIG. 2A). […] The A556/A652 value, representing the ratio of the absorbance maxima of Nile Red and SNile Red, increased from 0.25 to 30 after desulfuration reaction (FIG. 2B). Upon irradiation with red light, the fluorescence intensity of the desulfurated material at 626 nm increased 280-fold, accompanied by a change in fluorescence from dark to red (FIG. 2C). To evaluate the proper light source for SNile Red photoactivation, SNile Red was irradiated with either 470 nm, 615 nm, or 850 nm light for different times and fluorescence intensities at 626 nm were recorded. […] To further characterize the photoactivated product of SNile Red, ^1H NMR and ESI-MS spectral changes were measured in the process of photoactivation (FIG. 2A). […]
Singlet oxygen quantum yields were calculated according to the literature (Bonacin et al., 2009, Adarsh et al., 2010, and Li et al., 2013). […]

CCN(CC)c1ccc2nc3c4ccccc4c(=S)cc-3oc2c1 [SNile Red]
cells remaining viable [1]: 90% | singlet oxygen quantum yield [2]: 0.36
